The record followed here is ChEMBL document CHEMBL1151441, “Antimicrobial susceptibilities and clinical sources of Dialister species” (2007).

What all share (format): functional
In experiment [1] the test system is Dialister micraerophilus. In words: Antimicrobial activity against Dialister micraerophilus by agar dilution method. (In general: In agar dilution the substance is mixed into plates at graded concentrations.)
In experiment [2] the test system is Dialister pneumosintes. In words: Antimicrobial activity against Dialister pneumosintes assessed as susceptibility breakpoint by CLSI method.
Experiment [3] has as its system Dialister micraerophilus. In words: Antimicrobial activity against Dialister micraerophilus assessed as susceptibility breakpoint by CLSI method.
The test system of experiment [4] is Dialister invisus. The experiment in a line: Antimicrobial activity against Dialister invisus assessed as susceptibility breakpoint by CLSI method.
Experiment [5] has as its system Dialister propionicifaciens. In words: Antimicrobial activity against Dialister propionicifaciens by agar dilution method.
For experiment [6], the system named is Dialister invisus. In words: Antimicrobial activity against Dialister invisus assessed as susceptibility breakpoint by CA-SFM method.
The subject of experiment [7] is Dialister propionicifaciens. In words: Antimicrobial activity against Dialister propionicifaciens assessed as susceptibility breakpoint by CLSI method.
Experiment [8] relates to Dialister pneumosintes. In words: Antimicrobial activity against Dialister pneumosintes assessed as susceptibility breakpoint by CA-SFM method.
The subject of experiment [9] is Dialister pneumosintes. In words: Antimicrobial activity against Dialister pneumosintes by agar dilution method.
In experiment [10] the test system is Dialister micraerophilus. The experiment in a line: Antimicrobial activity against Dialister micraerophilus assessed as susceptibility breakpoint by CA-SFM method.
For experiment [11], the system named is Dialister propionicifaciens. The experiment in a line: Antimicrobial activity against Dialister propionicifaciens assessed as susceptibility breakpoint by CA-SFM method.
For experiment [12], the system named is Dialister invisus. In words: Antimicrobial activity against Dialister invisus by agar dilution method.

In brackets after ≈: the same amount, converted by molar mass. A value given as a limit tells only on which side of the number the result lay.

Take `C[C@@H](O)[C@H]1C(=O)N2C(C(=O)O)=C(S[C@@H]3CN[C@H](C(=O)Nc4cccc(C(=O)O)c4)C3)[C@H](C)[C@H]12`: the MIC (against Dialister micraerophilus [1]; in [5]; against Dialister pneumosintes [9]) was 0.125 µg/mL (≈ 0.263 µM) each time. The Activity result (with Dialister pneumosintes [2]; in the experiment with Dialister micraerophilus [3]; with Dialister invisus [4]; in the experiment with Dialister invisus [6]; in experiment [7]; with Dialister pneumosintes [8]) was “<=4 ug ml-1” throughout. Moreover, the Activity entry (with Dialister micraerophilus [10]; in experiment [11]) was “<=4 ug ml-1” throughout. Moreover, the MIC50 – broadly, an inhibitory concentration at the 50% level, which refers to growth in some studies and to a panel of isolates in others – against Dialister pneumosintes [9] is 0.125 µg/mL (≈ 0.263 µM). The MIC90 – broadly, an inhibitory concentration at the 90% level, which refers to growth in some studies and to a panel of isolates in others – against Dialister pneumosintes [9] worked out at 0.125 µg/mL (≈ 0.263 µM).

`CC1(C)S[C@@H]2[C@H](NC(=O)[C@H](N)c3ccc(O)cc3)C(=O)N2[C@H]1C(=O)O` [AMOXICILLIN]: the MIC (with Dialister micraerophilus [1]; in experiment [5]; against Dialister pneumosintes [9]; against Dialister invisus [12]) was no more than 0.06 µg/mL each time. Further, the MIC50 in the experiment on Dialister micraerophilus [1] and with Dialister pneumosintes [9] was no more than 0.06 µg/mL each time. The MIC90 in the experiment on Dialister micraerophilus [1] and in the experiment with Dialister pneumosintes [9] was no more than 0.06 µg/mL throughout. The Activity entry (in the experiment with Dialister pneumosintes [2]; in the experiment with Dialister micraerophilus [3]; in the experiment on Dialister invisus [4]; in the experiment with Dialister invisus [6]; in [7]; with Dialister pneumosintes [8]) was “<=0.5 ug ml-1” in each case. Also, the Activity entry (with Dialister micraerophilus [10]; in [11]) was “<=0.5 ug ml-1” each time.

Turning to `CO[C@@]1(NC(=O)Cc2cccs2)C(=O)N2C(C(=O)O)=C(COC(N)=O)CS[C@@H]21` [CEFOXITIN], the MIC (against Dialister micraerophilus [1]; in [5]; in the experiment on Dialister pneumosintes [9]; with Dialister invisus [12]) was 0.5 µg/mL (≈ 1.17 µM) each time. Besides, the MIC50 with Dialister micraerophilus [1] and in the experiment with Dialister pneumosintes [9] was 0.5 µg/mL (≈ 1.17 µM) throughout. For the same molecule, the results for the MIC90 against Dialister micraerophilus [1] and in the experiment with Dialister pneumosintes [9] were 0.5 µg/mL (≈ 1.17 µM) and 1 µg/mL (≈ 2.34 µM), respectively. The Activity entry with Dialister pneumosintes [2] was “<=16 ug ml-1”; in the experiment with Dialister micraerophilus [3] it was “<=16 ug ml-1”; in the experiment with Dialister invisus [4] it was “<=16 ug ml-1”; in the experiment with Dialister invisus [6], “<=8 ug ml-1”; in experiment [7], “<=16 ug ml-1”; in the experiment on Dialister pneumosintes [8], “<=8 ug ml-1”. Also, the Activity entry (in the experiment with Dialister micraerophilus [10]; in experiment [11]) was “<=8 ug ml-1” in each case.

On to `CC(=O)OCC1=C(C(=O)O)N2C(=O)[C@@H](NC(=O)Cc3cccs3)[C@H]2SC1` [CEPHALOTHIN], for which the MIC (in the experiment with Dialister micraerophilus [1]; in [5]; in the experiment with Dialister pneumosintes [9]) was 0.25 µg/mL (≈ 0.631 µM) in each case. The Activity entry (in the experiment on Dialister invisus [6]; in the experiment on Dialister pneumosintes [8]; in the experiment on Dialister micraerophilus [10]; in experiment [11]) was “<=8 ug ml-1” in each case. In the experiment on Dialister pneumosintes [9], this molecule showed an MIC50 of 0.5 µg/mL (≈ 1.26 µM). For the same molecule, the MIC90 in the experiment on Dialister pneumosintes [9] worked out at 1 µg/mL (≈ 2.52 µM).

Regarding `O=C(O)c1cn(C2CC2)c2cc(N3CCNCC3)c(F)cc2c1=O` [CIPROFLOXACIN], the MIC (with Dialister micraerophilus [1]; in experiment [5]; against Dialister pneumosintes [9]; in the experiment on Dialister invisus [12]) was no more than 0.06 µg/mL in each case. The MIC50 against Dialister micraerophilus [1] and in the experiment on Dialister pneumosintes [9] was no more than 0.06 µg/mL each time. In addition, the MIC90 against Dialister micraerophilus [1] and against Dialister pneumosintes [9] was no more than 0.06 µg/mL each time. For the same molecule, the Activity entry (in the experiment with Dialister invisus [6]; in the experiment on Dialister pneumosintes [8]; in the experiment with Dialister micraerophilus [10]; in experiment [11]) was “<=0.5 ug ml-1” throughout.

In the case of `C[C@H]1c2cccc(O)c2C(=O)C2=C(O)[C@]3(O)C(=O)C(C(N)=O)=C(O)[C@@H](N(C)C)[C@@H]3[C@@H](O)[C@@H]21.O` [DOXYCYCLINE], the MIC (against Dialister micraerophilus [1]; in [5]; in the experiment with Dialister pneumosintes [9]) was no more than 0.06 µg/mL each time. The Activity result (with Dialister invisus [6]; with Dialister pneumosintes [8]; in the experiment on Dialister micraerophilus [10]; in experiment [11]) was “<=4 ug ml-1” each time. Besides, in the experiment with Dialister pneumosintes [9], the MIC50 turned out to be 0.25 µg/mL. Also, in the experiment on Dialister pneumosintes [9], the MIC90 stood at 0.25 µg/mL.

As to `CC[C@H]1OC(=O)[C@H](C)[C@@H](O[C@H]2C[C@@](C)(OC)[C@@H](O)[C@H](C)O2)[C@H](C)[C@@H](O[C@@H]2O[C@H](C)C[C@H](N(C)C)[C@H]2O)[C@](C)(O)C[C@@H](C)C(=O)[C@H](C)[C@@H](O)[C@]1(C)O` [ERYTHROMYCIN], the MIC (in the experiment with Dialister micraerophilus [1]; in experiment [5]; in the experiment with Dialister pneumosintes [9]) was 0.125 µg/mL (≈ 0.17 µM) throughout. For the same molecule, the Activity result (in the experiment with Dialister invisus [6]; in the experiment on Dialister pneumosintes [8]; with Dialister micraerophilus [10]; in experiment [11]) was “<=1 ug ml-1” each time. In addition, the MIC50 in the experiment with Dialister pneumosintes [9] came to 1 µg/mL (≈ 1.36 µM). In the experiment with Dialister pneumosintes [9], this molecule returned an MIC90 of 2 µg/mL (≈ 2.73 µM).

Regarding `C[C@H]1COc2c(N3CCN(C)CC3)c(F)cc3c(=O)c(C(=O)O)cn1c23.C[C@H]1COc2c(N3CCN(C)CC3)c(F)cc3c(=O)c(C(=O)O)cn1c23.O` [LEVOFLOXACIN], the MIC (in the experiment with Dialister micraerophilus [1]; in [5]; against Dialister pneumosintes [9]) was 0.25 µg/mL throughout. Also, the Activity result (in the experiment on Dialister invisus [6]; with Dialister pneumosintes [8]; in the experiment on Dialister micraerophilus [10]; in experiment [11]) was “<=1 ug ml-1” in each case. In the experiment with Dialister pneumosintes [9], this molecule had an MIC50 of 0.25 µg/mL. Moreover, in the experiment on Dialister pneumosintes [9], the MIC90 was found to be 0.5 µg/mL.

Take `COc1c(N2C[C@@H]3CCCN[C@@H]3C2)c(F)cc2c(=O)c(C(=O)O)cn(C3CC3)c12` [MOXIFLOXACIN]: the MIC (against Dialister micraerophilus [1]; in experiment [5]; against Dialister pneumosintes [9]; in the experiment with Dialister invisus [12]) was no more than 0.06 µg/mL throughout. Further, the MIC50 against Dialister micraerophilus [1] and with Dialister pneumosintes [9] was no more than 0.06 µg/mL in each case. The MIC90 came to 0.25 µg/mL (≈ 0.623 µM) against Dialister micraerophilus [1] and 0.06 µg/mL (≈ 0.149 µM) against Dialister pneumosintes [9]. Also, the Activity result with Dialister pneumosintes [8] and in the experiment on Dialister micraerophilus [10] was “<=1 ug ml-1” each time.

With `CO[C@H]1/C=C/O[C@@]2(C)Oc3c(C)c(O)c4c(O)c(c(/C=N/N5CCN(C)CC5)c(O)c4c3C2=O)NC(=O)/C(C)=C\C=C\[C@H](C)[C@H](O)[C@@H](C)[C@@H](O)[C@@H](C)[C@H](OC(C)=O)[C@@H]1C` [RIFAMPIN], the MIC (against Dialister micraerophilus [1]; in experiment [5]; against Dialister pneumosintes [9]; in the experiment with Dialister invisus [12]) was no more than 0.06 µg/mL throughout. Besides, the MIC50 is no more than 0.06 µg/mL with Dialister micraerophilus [1] and 2 µg/mL (≈ 2.43 µM) in the experiment on Dialister pneumosintes [9]. Besides, the MIC90 is no more than 0.06 µg/mL in the experiment on Dialister micraerophilus [1] and 4 µg/mL (≈ 4.86 µM) against Dialister pneumosintes [9]. In addition, the Activity result (in the experiment with Dialister invisus [6]; in the experiment on Dialister pneumosintes [8]; in the experiment on Dialister micraerophilus [10]; in [11]) was “<=2 ug ml-1” throughout.

For the molecule `CC[C@H]1OC(=O)[C@H](C)C(=O)[C@H](C)[C@@H](O[C@@H]2O[C@H](C)C[C@H](N(C)C)[C@H]2O)[C@](C)(OC)C[C@@H](C)C(=O)[C@H](C)[C@H]2N(CCCCn3cnc(-c4cccnc4)c3)C(=O)O[C@]12C` [TELITHROMYCIN], the MIC (with Dialister micraerophilus [1]; in experiment [5]; in the experiment on Dialister pneumosintes [9]; in the experiment on Dialister invisus [12]) was no more than 0.06 µg/mL in each case. For the same molecule, the MIC50 in the experiment with Dialister micraerophilus [1] and against Dialister pneumosintes [9] was no more than 0.06 µg/mL each time. The MIC90 in the experiment on Dialister micraerophilus [1] and with Dialister pneumosintes [9] was no more than 0.06 µg/mL each time. The Activity result (in the experiment with Dialister invisus [6]; in the experiment on Dialister pneumosintes [8]; in the experiment with Dialister micraerophilus [10]; in [11]) was “<=0.5 ug ml-1” in each case.
